# Reference: patent US9409900B2, “Compound for increasing kinase active and application thereof” (FUJIAN HAIXI PHARMACEUTICALS, INC., priority 2010, dated 2016)
# Molecular target: glucokinase (Homo sapiens (Human), UniProt P35557)
# Assay: Glucokinase Activation Assay
# Assay type: biochemical
# Settings: 5 mM glucose, 100 nM glucokinase, G6PDH-coupled, absorbance at 340 nm, pH 7.1
# Experimental: The final assay volume was 200 uL and the final buffer conditions used in this assay were as follows: 25 mM HEPES, 5 mM glucose, 1 mM ATP, 2 mM MgCl2, 1 mM NAD, 1 mM DTT, 8.5 U/mL G6PDH, 100 nM glucokinase, and 25 mM KCl. The buffer pH was 7.1. The mixture A was first made containing KCl, MgCl2, DTT and Glucose in HEPES buffer. The mixture B was made containing NAD and ATP. The test compound in DMSO solution, the mixture A, the mixture B and G6PDH were first mixed in a 96-well plate. Glucokinase was then added to initiate the reaction, and the absorbance at 340 nm was monitored every 5 mins. The activity of glucokinase was represented by the initial generation rate of glucose-6-phosphate, which was calculated by drawing the slope values from the absorbance changing curve at 340 nm vs. the time points.
# glucokinase, sequence (P35557 whole entry, species assumed): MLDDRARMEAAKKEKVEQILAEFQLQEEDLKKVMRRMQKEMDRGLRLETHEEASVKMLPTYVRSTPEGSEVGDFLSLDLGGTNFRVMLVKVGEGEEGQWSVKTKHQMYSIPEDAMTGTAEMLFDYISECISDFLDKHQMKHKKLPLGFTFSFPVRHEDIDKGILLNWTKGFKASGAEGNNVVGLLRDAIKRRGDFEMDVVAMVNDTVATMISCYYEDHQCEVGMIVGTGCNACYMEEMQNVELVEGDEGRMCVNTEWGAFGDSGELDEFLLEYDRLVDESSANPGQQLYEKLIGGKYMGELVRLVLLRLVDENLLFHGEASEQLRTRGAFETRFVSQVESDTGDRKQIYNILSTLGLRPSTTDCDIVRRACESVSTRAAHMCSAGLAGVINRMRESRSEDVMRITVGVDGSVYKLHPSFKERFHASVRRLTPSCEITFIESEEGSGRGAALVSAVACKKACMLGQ
row,SMILES,EC50 [µM]
1,"Cc1cnc(Nc2ccc(Oc3ccc(S(C)(=O)=O)nc3)c(CN3CCCC3=O)c2)s1 [Example 13, 1-(2-(6-(methylsulfonyl)pyridin-3-yloxy)-5-(5-methylthiazol-2-ylamino)benzyl)pyrrolidin-2-one]",2
2,"CS(=O)(=O)c1ccc(Oc2ccc(Nc3ccc(C(=O)O)cn3)cc2CN2CCCC2=O)cn1 [Example 6, 6-(4-(6-(methylsulfonyl)pyridin-3-yloxy)-3-((2-oxopyrrolidin-1-yl)methyl)phenylamino) nicotinic acid]",2
3,"CN(C)C(=O)c1ccc(Oc2ccc(Nc3ccccn3)cc2CN2CCCC2=O)cn1 [Example 65, N,N-dimethyl-5-(2-((2-oxopyrrolidin-1-yl)methyl)-4-(pyridin-2-ylamino)phenoxy)picolinamide]",5
4,"CN(C)C(=O)c1ccc(Oc2ccc(Nc3ccc(CCC(=O)O)cn3)cc2CN2CCCC2=O)cn1 [Example 78, 3-(6-(4-(6-(dimethylcarbamoyl)pyridin-3-yloxy)-3-((2-oxopyrrolidin-1-yl)methyl)phenylamino)pyridin-3-yl) propanoic acid]",1.5
